Results published in ChEMBL document CHEMBL5393452, “Mettl3 inhibitory compounds” (2020).
Calls of active or inactive are those of the source. No cut-off for these calls is given here.

Experiments:
MOLM-13 [1] = assay: Antiproliferative activity against human MOLM-13 cells incubated for 6 days by CellTiter-Glo assay; type: functional, cell-based; settings: MOLM-13, 144 h
[2] = molecular target: N6-adenosine-methyltransferase catalytic subunit (Homo sapiens, UniProt Q86U44); assay: Inhibition of METTL3 in human MOLM-13 cells assessed as reduction in m6A methylation level at 0.1 to 50 uM measured by NanoDrop spectrophotomery analysis; type: cell-based; settings: dose 0.1-50 µM
Chain of N6-adenosine-methyltransferase catalytic subunit (Q86U44 whole entry): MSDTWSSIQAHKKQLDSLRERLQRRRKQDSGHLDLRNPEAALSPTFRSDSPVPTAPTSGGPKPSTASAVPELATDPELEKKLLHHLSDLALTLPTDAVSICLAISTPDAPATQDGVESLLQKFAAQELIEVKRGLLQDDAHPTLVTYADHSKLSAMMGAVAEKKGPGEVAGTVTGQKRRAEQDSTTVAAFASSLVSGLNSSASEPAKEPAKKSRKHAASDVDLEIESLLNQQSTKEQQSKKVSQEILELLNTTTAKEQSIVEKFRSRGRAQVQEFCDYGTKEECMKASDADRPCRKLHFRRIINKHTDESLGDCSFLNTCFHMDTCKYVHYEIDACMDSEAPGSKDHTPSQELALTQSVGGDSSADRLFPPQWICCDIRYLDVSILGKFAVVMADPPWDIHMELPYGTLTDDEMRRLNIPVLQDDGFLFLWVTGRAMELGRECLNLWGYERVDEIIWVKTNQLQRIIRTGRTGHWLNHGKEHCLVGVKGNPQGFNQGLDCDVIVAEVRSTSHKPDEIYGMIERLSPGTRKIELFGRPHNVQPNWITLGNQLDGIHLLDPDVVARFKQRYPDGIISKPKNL

Caov-3 cell line = assay: Antiproliferative activity against human Caov-3 cells incubated for 120 hrs by CellTiter-Glo assay; type: functional, cell-based; settings: Caov-3, 120 h
KCL-22 = assay: Antiproliferative activity against IFN-gamma-treated human KCL-22 cells incubated for 6 days by CellTiter-Glo assay; type: functional, cell-based; settings: KCL-22, 144 h
THP-1 = assay: Antiproliferative activity against IFN-gamma-treated human THP-1 cells incubated for 7 days by CellTiter-Glo assay; type: functional, cell-based; settings: THP-1, 168 h
Kasumi 1 = assay: Antiproliferative activity against IFN-gamma-treated human Kasumi 1 cells incubated for 6 days by CellTiter-Glo assay; type: functional, cell-based; settings: Kasumi 1, 144 h
MOLM-13 [3] = assay: Antiproliferative activity against IFN-gamma-treated human MOLM-13 cells incubated for 7 days by CellTiter-Glo assay; type: functional, cell-based; settings: MOLM-13, 168 h
NOMO-1 = assay: Antiproliferative activity against IFN-gamma-treated human NOMO-1 cells incubated for 6 days by CellTiter-Glo assay; type: functional, cell-based; settings: NOMO-1, 144 h

| SMILES | IC50 (MOLM-13 [1]) | other results |
| --- | --- | --- |
| O=C(NCc1cn2cc(CNCCCc3ccccc3)ccc2n1)c1cc(=O)n2ccccc2n1 | 4.64 µM | – |
| CN(Cc1ccccc1)Cc1ccc2nc(CNC(=O)c3cc(=O)n4ccccc4n3)cn2c1 | 30 µM | – |
| NC(=O)c1cc(-c2cn(Cc3cn4cc(CNCC5CCC5)ccc4n3)nn2)c2cn[nH]c2c1 | 30 µM | – |
| O=C(NCc1cn2cc(CCNCc3ccccc3)ccc2n1)c1cc(=O)n2ccccc2n1 | 30 µM | – |
| Oc1cc(-c2cn(Cc3cn4cc(CNCC5(O)CCC5)ccc4n3)nn2)c2cn[nH]c2c1 | 30 µM | – |
| Cc1ccc2nc(CNC(=O)c3cc(=O)n4ccccc4n3)cn2c1 | – | inhibition [2]: Active |
| O=C(O)c1cc(-c2cn(Cc3cn4cc(CNCC5CCC5)ccc4n3)nn2)c2cn[nH]c2c1 | 30 µM | – |
| O=C(c1cc(-c2cn(Cc3cn4cc(CNCC5CCC5)ccc4n3)nn2)c2cn[nH]c2c1)N1CCOCC1 | 30 µM | – |
| CN(C)C(=O)c1cc(-c2cn(Cc3cn4cc(CNCC5CCC5)ccc4n3)nn2)c2cn[nH]c2c1 | 30 µM | – |

The next lines start with results.

| IC50 (MOLM-13 [1]) | SMILES | other results |
| --- | --- | --- |
| 30 µM | N#CCC(NCC1CCC1)c1ccc2nc(CNC(=O)c3cc(=O)n4ccccc4n3)cn2c1 (stereo not given) | – |
| 3.9 µM | O=C(NCc1cn2cc(CNCCc3ccccc3)ccc2n1)c1cc(=O)n2ccccc2n1 | – |
| 30 µM | COC(C)(C)CNCc1ccc2nc(CNC(=O)c3cc(=O)n4ccccc4n3)cn2c1 | – |
| 30 µM | O=C(NCc1cn2cc(CNC3CCC3)ccc2n1)c1cc(=O)n2ccccc2n1 | – |
| 30 µM | CC(C)(O)CNCc1ccc2nc(CNC(=O)c3cc(=O)n4ccccc4n3)cn2c1 | – |
| 30 µM | CC(C)(C)NCc1ccc2nc(CNC(=O)c3cc(=O)n4ccccc4n3)cn2c1 | – |
| 30 µM | O=C(NCc1cn2cc(CNCCC3CC(F)(F)C3)ccc2n1)c1cc(=O)n2ccccc2n1 | – |
| 1.33 µM | O=C(NCc1cn2cc(CNCC34CC(C3)C4)ccc2n1)c1cc(=O)n2ccccc2n1 | IC50 (Caov-3 cell line): 0.296 µM |
| 3.59 µM | O=C(NCc1cn2cc(CNCc3ccccc3)ccc2n1)c1cc(=O)n2ccccc2n1 | IC50 (KCL-22): 14 µM; IC50 (THP-1): 2.12 µM; IC50 (Kasumi 1): 1.89 µM; IC50 (MOLM-13 [3]): 0.847 µM; IC50 (NOMO-1): 6.55 µM |
| 30 µM | O=C(NCc1cn2cc(CNCC3CC4(CC4)C3)ccc2n1)c1cc(=O)n2ccccc2n1 | – |
